# According to US20140187548A1, “6 SUBSTITUTED IMIDAZOPYRAZINES FOR USE AS MPS-1 AND TKK INHIBITORS IN THE TREATMENT OF HYPERPROLIFERATIVE DISORDERS” (BAYER INTELLECTUAL PROPERTY GMBH, priority 2010, published 2014):
# Molecular target: T1, human kinase Mps-1 (Homo sapiens, UniProt P33981)
# T1 construct: N-terminally GST-tagged human full length recombinant Mps-1 kinase; GST (N); purchased Invitrogen, Karslruhe, Germany PV4071
# T1 sequence (P33981 1-857): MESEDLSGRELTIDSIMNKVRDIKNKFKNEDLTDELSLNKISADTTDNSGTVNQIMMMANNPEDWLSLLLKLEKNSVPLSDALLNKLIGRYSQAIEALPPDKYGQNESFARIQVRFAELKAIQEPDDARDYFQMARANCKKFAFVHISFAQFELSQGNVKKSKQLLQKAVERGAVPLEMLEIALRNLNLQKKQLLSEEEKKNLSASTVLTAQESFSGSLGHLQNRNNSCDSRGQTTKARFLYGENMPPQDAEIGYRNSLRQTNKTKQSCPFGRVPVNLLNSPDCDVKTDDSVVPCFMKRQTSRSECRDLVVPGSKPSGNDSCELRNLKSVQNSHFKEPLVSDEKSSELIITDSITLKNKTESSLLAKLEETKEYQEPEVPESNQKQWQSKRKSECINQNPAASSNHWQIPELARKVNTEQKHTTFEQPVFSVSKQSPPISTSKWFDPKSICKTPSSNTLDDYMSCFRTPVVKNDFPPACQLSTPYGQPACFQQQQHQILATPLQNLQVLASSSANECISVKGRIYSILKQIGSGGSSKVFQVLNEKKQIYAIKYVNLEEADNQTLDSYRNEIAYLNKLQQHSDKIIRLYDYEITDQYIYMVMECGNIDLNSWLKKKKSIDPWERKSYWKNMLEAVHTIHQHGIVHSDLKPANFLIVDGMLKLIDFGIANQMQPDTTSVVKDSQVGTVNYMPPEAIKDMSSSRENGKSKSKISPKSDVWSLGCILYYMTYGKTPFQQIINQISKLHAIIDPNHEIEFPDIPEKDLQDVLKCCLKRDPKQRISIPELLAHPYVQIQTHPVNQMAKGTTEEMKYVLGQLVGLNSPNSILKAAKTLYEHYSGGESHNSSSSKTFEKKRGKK
# Assay: Mps-1 kinase assay (TR-FRET)
# Type: biochemical
# Details: N-terminally GST-tagged human full length recombinant Mps-1; 10 μM ATP; 1 μM peptide substrate; 15 min pre-incubation; 60 min at 22° C.
# How it was run: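 N-terminally GST-tagged full-length recombinant human Mps-1, about 1 nM final, phosphorylates a biotinylated peptide. Product detected by TR-FRET from Eu-anti-phospho-Ser/Thr antibody to streptavidin-XLent after 1 h at 22° C.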
row,SMILES,IC50 [nM]
1,"Cn1nccc1CNc1nc(-c2ccccc2CO)cn2c(-c3ccc(C(=O)NC4CC4)c(F)c3)cnc12 [Example 1-121, N-cyclopropyl-2-fluoro-4-(6-[2-(hydroxymethyl)phenyl]-8-{[(1-methyl-1H-pyrazol-5-yl)methyl]amino}imidazo[1,2-a]pyrazin-3-yl)benzamide]",11.1
2,"CN(C)c1ccc(-c2cn3c(-c4ccc(C(=O)NC5CC5)c(Cl)c4)cnc3c(NCc3ccnn3C)n2)cc1 [Example 1-108, 2-chloro-N-cyclopropyl-4-(6-[4-(dimethylamino)phenyl]-8-{[(1-methyl-1H-pyrazol-5-yl)methyl]amino}imidazo [1,2-a]pyrazin-3-yl) benzamide]",43.9
3,"Cc1cc(-c2cn3c(-c4ccc(C(=O)NC5CC5)cc4)cnc3c(NCC(C)(C)O)n2)ccc1F [Example 1-135, N-cyclopropyl-4-{6-(4-fluoro-3-methylphenyl)-8-[(2-hydroxy-2-methylpropyl)amino]imidazo [1,2-a]pyrazin-3-yl} benzamide]",8.4
4,"CC(C)CNc1nc(-c2ccc(C(=O)NC3CC3)cc2)cn2c(-c3ccc(C(=O)NC4CC4)cc3)cnc12 [Example 1-30, 4,4′-{8-[(2-methylpropyl)amino]imidazo[1,2-a]pyrazine-3,6-diyl}bis (N-cyclopropylbenzamide)]",1.5
5,"CC(C)(O)CNc1nc(-c2ccc(F)cc2)cn2c(-c3ccc(C(=O)NC4CC4)c(F)c3)cnc12 [Example 1-115, N-cyclopropyl-2-fluoro-4-{6-(4-fluorophenyl)-8-[(2-hydroxy-2-methyl-propyl)amino]imidazo [1,2-a]pyrazin-3-yl} benzamide]",5.4
6,"COc1c(C)cc(-c2cn3c(-c4ccc(C(=O)NC5CC5)cc4)cnc3c(NCC(C)C)n2)cc1C [Example 1-68, N-cyclopropyl-4-{6-(4-methoxy-3,5-dimethylphenyl)-8-[(2-methyl-propyl)amino]imidazo [1,2-a]pyrazin-3-yl} benzamide]",19.7

# Now from value to compound:
row,IC50 [nM],SMILES
1,5.6,"NS(=O)(=O)c1ccc(CNc2nc(-c3ccccc3)cn3c(-c4ccc(C(=O)NC5CC5)cc4)cnc23)cc1 [Example 2-26, N-cyclopropyl-4-{6-phenyl-8-[(4-sulfamoylbenzyl)amino]imidazo[1,2-a]pyrazin-3-yl}benzamide]"
2,5.4,"O=C(NC1CC1)c1ccc(-c2cnc3c(NCCSC(F)(F)F)nc(-c4ccccc4)cn23)cc1 [Example 2-83, N-cyclopropyl-4-[6-phenyl-8-({2-[(trifluoromethyl)sulfanyl]ethyl}amino)imidazo[1,2-a]pyrazin-3-yl]benzamide]"
3,16.6,"Cc1cc(-c2cnc3c(NCCC4CC4)nc(-c4ccc(F)cc4)cn23)ccc1C(=O)NC1CC1 [Example 10-10, N-cyclopropyl-4-{8-[(2-cyclopropylethyl)amino]-6-(4-fluorophenyl)imidazo [1,2-a]pyrazin-3-yl}-2-methylbenzamide]"
4,9.1,"NS(=O)(=O)c1ccc(CCNc2nc(-c3ccccc3)cn3c(-c4ccc(C(=O)NC5CC5)cc4)cnc23)cc1 [Example 2-21, N-cyclopropyl-4-(6-phenyl-8-{[2-(4-sulfamoylphenyl)ethyl]amino}imidazo[1,2-a]pyrazin-3-yl)benzamide]"
5,47.7,"CCN(CC)CCNc1nc(-c2ccccc2)cn2c(-c3ccc(C(=O)NC4CC4)cc3)cnc12 [Example 2-2, N-cyclopropyl-4-(8-{[2-(diethylamino)ethyl]amino}-6-phenylimidazo[1,2-a]pyrazin-3-yl)benzamide]"
6,34.8,"O=C(NC1CC1)c1ccc(-c2cnc3c(NCCCc4ccccc4)nc(-c4ccccc4)cn23)cc1 [Example 2-31, N-cyclopropyl-4-{6-phenyl-8-[(3-phenylpropyl)amino]imidazo[1,2-a]pyrazin-3-yl} benzamide]"
7,38.6,"O=C(NC1CC1)c1ccc(-c2cnc3c(NCc4ccc(C(F)(F)F)cc4)nc(-c4ccccc4)cn23)cc1 [Example 2-20, N-cyclopropyl-4-(6-phenyl-8-{[4-(trifluoromethyl)benzyl]amino}imidazo[1,2-a]pyrazin-3-yl)benzamide]"
